Reference: patent publication US4504483A, “Fluorine substituted pyridine methyl esters and insecticidal and acaricidal compositions thereof” (Nissan Chemical Industries Ltd., priority 1981, dated 1985)
≈ marks a conversion by molar mass, not a printed value.

Legend:
[1] = system: green rice leafhopper; assay: Contact test for killing green rice leafhopper; type: in vivo; conditions: Nephotettix cincticeps, 48 h, read-out: LC50 (median lethal dose)
Method: Stems and leaves of a rice seedling were dipped in each emulsion of each active ingredient of the present invention or a reference compound for 10 seconds and were dried in air. The stems and leaves were covered with a glass cylinder. Adult green rice leafhoppers which are resistant to the conventional organic phosphorus type insecticide were released into the glass cylinder which was covered with a cover having holes and was maintained in a constant temperature room at 25° C. for 48 hours and each percent mortality was determined and median lethal dose (LC50) was calculated in Finny's graphic method.

[2] = system: Twenty-eight-spotted Ladybeetle; assay: Contact test for killing Twenty-eight-spotted Ladybeetle; type: in vivo; conditions: Henosepilachna vigintioctopunctata, in Solanum lycopersicum, 48 h, read-out: LC50 (median lethal dose)
Method: Leaves of tomato were dipped in each emulsion of each active ingredient of the present invention or the reference for 10 seconds. The leaves were taken up and dired in air and put in a Petri dish. Ten of Twenty-eight-spotted Ladybeetles (second instar) were put in the Petri dish which was covered with a cover. The Petri dish was maintained in a constant temperature room at 25° C. for 48 hours and percent mortality was determined and median lethal dose (LC50) was calculated in Finny's graphic method.

[3] = system: Common cutworm; assay: Contact test for killing Common cutworm; type: in vivo, Spodoptcra litura; conditions: 48 h, read-out: LC50 (median lethal dose)
Method: Leaves of cabbage were dipped in each aqueous emulsion of each active ingredient of the compounds of the invention or the reference for 10 seconds. The leaves were taken up and dried in air and put in a Petri dish. Common cutworms (second instar) were put in the Petri dish which was covered with a cover having many holes. The Petri dish was maintained in a constant temperature room at 25° C. for 48 hours and each percent mortality was determined and median lethal dose (LC50) was calculated in Finny's graphic method.

[4] = system: Green peach aphid; assay: Test for killing Green peach aphid; type: in vivo, Myzue persicae; conditions: Myzus persicae, 48 h, read-out: LC50 (median lethal dose)
Method: Each emulsifiable concentrate of the compound of the present invention or the reference compound was diluted with water to a predetermined concentration. Green peach aphid were inoculated on leaves in a Petri dish having a diameter of 3 cm and 2 ml of each emulsion was sprayed and it was covered. The Petri dish was maintained in a constant temperature room at 25° C. for 48 hours and each percent of mortality was determined and median lethal dose (LC50) was calculated in Finny's graphic method.

[5] = system: Kanzawa spider mite; assay: Test for killing Kanzawa spider mite; type: in vivo; conditions: Tetranychus kanzawai, in Phaseolus vulgaris, 48 h, read-out: LC50 (median lethal dose)
Source text: Leaves of kidney bean was cut by a leaf-punch in a form of circle having a diameter of 1.5 cm. The leaf-discs were put on a wet filter paper on a polystyrene cup having a diameter of 7 cm. Ten of Kanzawa spider mites were inoculated on the leaf-discs in the cup. Half days after the inoculation, each solution prepared by diluting each emulsifiable concentrate of the present invention or each reference compound with a spreader (Nitten S 4,000 times manufactured by Nissan Chem.) at each predetermined concentration was sprayed by a rotary spray for 2 ml. per each cup.
Numbers of mortalities of mites were measured after 48 hours from the spraying and percent mortaliteis were calculated and median lethal dose (LC50) was calculated in Finny's graphic method.

## CC1(C)[C@@H](C(=O)OC(C#N)c2ccc(F)c(Oc3ccccc3)n2)[C@@H]1c1ccc(Cl)cc1 (relative stereo) [Compound No. 3]
[1]
  LC50: 0.7 µg/mL (≈ 1.55 µM)
[2]
  LC50: 0.26 µg/mL (≈ 0.577 µM)
[3]
  LC50: 1.3 µg/mL (≈ 2.88 µM)

## CC(C)(C)c1ccc([C@H]2[C@H](C(=O)OC(C#N)c3ccc(F)c(Oc4ccccc4)n3)C2(C)C)cc1 (relative stereo) [Compound No. 4, Cyano(5-fluoro-6-phenoxy-2-pyridyl) methyl trans-2,2-dimethyl-3-(p-t-butylphenyl)cyclopropanecarboxylate]
[1]
  LC50: 1.3 µg/mL (≈ 2.75 µM)
[4]
  LC50: 4.6 µg/mL (≈ 9.73 µM)
[3]
  LC50: 4 µg/mL (≈ 8.46 µM)
[5]
  LC50: 0.32 µg/mL (≈ 0.677 µM)

## CC(C)C(C(=O)OC(C#N)c1ccc(F)c(Oc2ccccc2)n1)c1ccc(Cl)cc1 (stereo not drawn) [Compound No. 1, Cyano(5-fluoro-6-phenoxy-2-pyridyl) methyl α-isopropyl-p-chlorophenylacetate]
[1]
  LC50: 0.26 µg/mL (≈ 0.592 µM)
[2]
  LC50: 0.05 µg/mL (≈ 0.114 µM)
[3]
  LC50: 0.43 µg/mL (≈ 0.98 µM)
[5]
  LC50: 6.3 µg/mL (≈ 14.4 µM)

## CC(C)C(C(=O)OC(C#N)c1ccc(F)c(Oc2ccccc2)n1)c1ccc(OC(F)F)cc1 (centres unmarked) [Compound No. 2]
[1]
  LC50: 0.28 µg/mL (≈ 0.595 µM)
[4]
  LC50: 2.3 µg/mL (≈ 4.89 µM)
[2]
  LC50: 0.5 µg/mL (≈ 1.06 µM)
[3]
  LC50: 3 µg/mL (≈ 6.38 µM)
[5]
  LC50: 12 µg/mL (≈ 25.5 µM)

## CC1(C)C(C=C(Cl)Cl)C1C(=O)OC(C#N)c1ccc(F)c(Oc2ccccc2)n1 (centres unmarked) [Compound No. 5]
[1]
  LC50: 0.4 µg/mL (≈ 0.919 µM)
[4]
  LC50: 1.84 µg/mL (≈ 4.23 µM)
[2]
  LC50: 0.03 µg/mL (≈ 0.0689 µM)
[3]
  LC50: 0.31 µg/mL (≈ 0.712 µM)
[5]
  LC50: 5.4 µg/mL (≈ 12.4 µM)

## CC1(C)[C@H](C(=O)OC(C#N)c2ccc(F)c(Oc3ccccc3)n2)[C@@H]1C=C(Br)Br (stereo partly drawn) [Compound No. 6, Cyano(5-fluoro-6-phenoxy-2-pyridyl) methyl (1R, cis)-2,2-dimethyl-3-(2,2-dibromovinyl)cyclopropane carboxylate]
[1]
  LC50: 0.31 µg/mL (≈ 0.591 µM)
[2]
  LC50: 0.02 µg/mL (≈ 0.0382 µM)
[3]
  LC50: 0.24 µg/mL (≈ 0.458 µM)

## CC(C)C(C(=O)OC(C#N)c1cccc(Oc2ccc(F)cc2)n1)c1ccc(Cl)cc1 (centres unmarked) [Reference Compd. A]
[1]
  LC50: 1.4 µg/mL (≈ 3.19 µM)
[3]
  LC50: 3.1 µg/mL (≈ 7.06 µM)
[5]
  LC50: 100 µg/mL (≈ 228 µM)

## CC(C)C(C(=O)OC(C#N)c1cccc(Oc2ccccc2)n1)c1ccc(Cl)cc1 (centres unmarked) [Reference Compd. B]
[1]
  LC50: 5 µg/mL (≈ 11.9 µM)
[3]
  LC50: 1.7 µg/mL (≈ 4.04 µM)

## CC(C)C(C(=O)OC(C#N)c1cccc(Oc2ccc(F)cc2)n1)c1ccc(OC(F)F)cc1 (centres unmarked) [Reference Compd. C]
[1]
  LC50: 76 µg/mL (≈ 162 µM)
[2]
  LC50: 21 µg/mL (≈ 44.6 µM)
[3]
  LC50: 5 µg/mL (≈ 10.6 µM)
[5]
  LC50: > 100 µg/mL

## CC(C)C(C(=O)OC(C#N)c1cccc(Oc2ccccc2)n1)c1ccc(OC(F)F)cc1 (centres unmarked) [Reference Compd. D]
[1]
  LC50: 6 µg/mL (≈ 13.3 µM)
[4]
  LC50: 26 µg/mL (≈ 57.5 µM)
[2]
  LC50: 0.9 µg/mL (≈ 1.99 µM)
[3]
  LC50: 9 µg/mL (≈ 19.9 µM)

## CC1(C)C(C(=O)OC(C#N)c2cccc(Oc3ccc(F)cc3)n2)C1c1ccc(Cl)cc1 (centres unmarked) [Reference Compd. E]
[1]
  LC50: 16 µg/mL (≈ 35.5 µM)
[3]
  LC50: 13 µg/mL (≈ 28.8 µM)

## CC1(C)C(C(=O)OC(C#N)c2cccc(Oc3ccccc3)n2)C1c1ccc(Cl)cc1 (centres unmarked) [Reference Compd. F]
[2]
  LC50: 2 µg/mL (≈ 4.62 µM)
[3]
  LC50: 15 µg/mL (≈ 34.6 µM)

## CC(C)(C)c1ccc(C2C(C(=O)OC(C#N)c3cccc(Oc4ccc(F)cc4)n3)C2(C)C)cc1 (centres unmarked) [Reference Compd. G]
[1]
  LC50: 32 µg/mL (≈ 67.7 µM)
[3]
  LC50: 12 µg/mL (≈ 25.4 µM)
[5]
  LC50: 2 µg/mL (≈ 4.23 µM)

## CCCCc1ccc(C2C(C(=O)OC(C#N)c3cccc(Oc4ccccc4)n3)C2(C)C)cc1 (centres unmarked) [Reference Compd. H]
[1]
  LC50: 6.4 µg/mL (≈ 14.1 µM)
[4]
  LC50: 12 µg/mL (≈ 26.4 µM)

## CC1(C)C(C=C(Cl)Cl)C1C(=O)OCc1cccc(Oc2ccccc2)n1 (centres unmarked) [Reference Compd. I]
[1]
  LC50: 3.7 µg/mL (≈ 9.43 µM)
[4]
  LC50: 34 µg/mL (≈ 86.7 µM)
[3]
  LC50: 10 µg/mL (≈ 25.5 µM)
[5]
  LC50: > 100 µg/mL
